Measured values from ChEMBL document CHEMBL1130027, “Improved P1/P1' substituents for cyclic urea based HIV-1 protease inhibitors: synthesis, structure-activity relationship, and X-ray crystal structure analysis” (J Med Chem, 1997).

Columns and labels:
MT2 = assay: Cellular antiviral activity (IC90) assessed on human MT-2 cells infected with HIV-RF; assay type: functional
[1] = molecular target: Human immunodeficiency virus type 1 protease (Human immunodeficiency virus 1, UniProt Q72874); assay: Compound was tested for binding affinity against HIV-1 Protease
[2] = The half life in dog; assay type: ADME, organism-based, Canis lupus familiaris; conditions: in vivo
[3] = In vivo evaluation of maximum plasma concentration at a dose of 10 mg/kg; assay type: ADME, organism-based; set-up: dose 10 mg/kg
[4] = Oral bioavailability in dog; assay type: ADME, organism-based, Canis lupus familiaris; conditions: in vivo

SMILES	IC90 (MT2) [nM]	Ki [1] [nM]	half-life [2] [min]	Cmax [3] [ng/mL]	bioavailability [4] [%]
O=C1N(Cc2ccccc2)[C@H](Cc2ccc3ccccc3c2)[C@H](O)[C@@H](O)[C@@H](Cc2ccc3ccccc3c2)N1Cc1ccccc1	3200				
CC(=O)c1cccc(CN2C(=O)N(Cc3cccc(C(C)=O)c3)[C@H](Cc3ccc4c(c3)N(C)CCO4)[C@H](O)[C@@H](O)[C@H]2Cc2ccc3c(c2)N(C)CCO3)c1	16.4	0.08			
O=C1N(Cc2ccc3ccccc3c2)[C@H](Cc2ccc3c(c2)OCCO3)[C@H](O)[C@@H](O)[C@@H](Cc2ccc3c(c2)OCCO3)N1Cc1ccc2ccccc2c1	98	0.04			
CNc1cccc(CN2C(=O)N(Cc3cccc(NC)c3)[C@H](Cc3ccc4c(c3)OCCO4)[C@H](O)[C@@H](O)[C@H]2Cc2ccc3c(c2)OCCO3)c1	8.7	0.14	48	220	4.6
O=C1N(Cc2ccc(CO)cc2)[C@H](Cc2ccc3c(c2)OCCO3)[C@H](O)[C@@H](O)[C@@H](Cc2ccc3c(c2)OCCO3)N1Cc1ccc(CO)cc1	83	0.05			
CNc1cccc(CN2C(=O)N(Cc3cccc(NC)c3)[C@H](Cc3ccc4c(c3)CCO4)[C@H](O)[C@@H](O)[C@H]2Cc2ccc3c(c2)CCO3)c1	61.6	0.2			
COc1cc(C[C@@H]2[C@H](O)[C@@H](O)[C@@H](Cc3cc(OC)cc(OC)c3)N(Cc3ccccc3)C(=O)N2Cc2ccccc2)cc(OC)c1	> 5000	8			
COc1ccc(C[C@@H]2[C@H](O)[C@@H](O)[C@@H](Cc3ccc(OC)c(OC)c3)N(Cc3ccccc3)C(=O)N2Cc2ccccc2)cc1OC	640	6.4			
Nc1cccc(CN2C(=O)N(Cc3cccc(N)c3)[C@H](Cc3ccc4c(c3)OCCO4)[C@H](O)[C@@H](O)[C@H]2Cc2ccc3c(c2)OCCO3)c1	40	0.04			
O=C1N(Cc2ccc(O)cc2)[C@H](Cc2ccc3c(c2)OCCO3)[C@H](O)[C@@H](O)[C@@H](Cc2ccc3c(c2)OCCO3)N1Cc1ccc(O)cc1	107	0.03			
O=C1N(Cc2ccccc2)[C@H](Cc2ccccc2)[C@H](O)[C@@H](O)[C@@H](Cc2ccccc2)N1Cc1ccccc1	790				
CC(=O)c1cccc(CN2C(=O)N(Cc3cccc(C(C)=O)c3)[C@H](Cc3ccc4c(c3)OCCO4)[C@H](O)[C@@H](O)[C@H]2Cc2ccc3c(c2)OCCO3)c1	4.2	0.04			
CC(=O)c1cc(CN2C(=O)N(Cc3ccc(F)c(C(C)=O)c3)[C@H](Cc3ccc4c(c3)OCO4)[C@H](O)[C@@H](O)[C@H]2Cc2ccc3c(c2)OCO3)ccc1F	265	1.5			
CC(=O)c1cccc(CN2C(=O)N(Cc3cccc(C(C)=O)c3)[C@H](Cc3ccc4c(c3)CCO4)[C@H](O)[C@@H](O)[C@H]2Cc2ccc3c(c2)CCO3)c1	10	0.048			
CN1CCOc2ccc(C[C@@H]3[C@H](O)[C@@H](O)[C@@H](Cc4ccc5c(c4)N(C)CCO5)N(Cc4ccccc4)C(=O)N3Cc3ccccc3)cc21	218	0.7			
CC(=O)c1cccc(CN2C(=O)N(Cc3cccc(C(C)=O)c3)[C@H](Cc3ccc4c(c3)OCO4)[C@H](O)[C@@H](O)[C@H]2Cc2ccc3c(c2)OCO3)c1	14.7	0.043			
CC(=O)c1cc(CN2C(=O)N(Cc3ccc(F)c(C(C)=O)c3)[C@H](Cc3ccc4c(c3)OCCO4)[C@H](O)[C@@H](O)[C@H]2Cc2ccc3c(c2)OCCO3)ccc1F	84	0.64			
COc1cc(C[C@@H]2[C@H](O)[C@@H](O)[C@@H](Cc3cc(OC)cc(OC)c3)N(Cc3cccc(C(C)=O)c3)C(=O)N2Cc2cccc(C(C)=O)c2)cc(OC)c1	46.4	0.4			
CNc1cccc(CN2C(=O)N(Cc3cccc(N)c3)[C@H](Cc3ccc4c(c3)OCCO4)[C@H](O)[C@@H](O)[C@H]2Cc2ccc3c(c2)OCCO3)c1	27	0.11			
O=C1N(Cc2ccccc2)[C@H](Cc2ccc3c(c2)CCO3)[C@H](O)[C@@H](O)[C@@H](Cc2ccc3c(c2)CCO3)N1Cc1ccccc1	305				
O=C1N(CC2CC2)[C@H](Cc2ccc3c(c2)OCCO3)[C@H](O)[C@@H](O)[C@@H](Cc2ccc3c(c2)OCCO3)N1CC1CC1	928	0.27			
O=C1N(Cc2ccccc2)[C@H](Cc2ccc3c(c2)OCCO3)[C@H](O)[C@@H](O)[C@@H](Cc2ccc3c(c2)OCCO3)N1Cc1ccccc1	112	0.44			
O=C1N(Cc2ccccc2)[C@H](Cc2ccc3c(c2)OCO3)[C@H](O)[C@@H](O)[C@@H](Cc2ccc3c(c2)OCO3)N1Cc1ccccc1	504	1			
Nc1cccc(CN2C(=O)N(Cc3cccc(N)c3)[C@H](Cc3ccc4c(c3)CCO4)[C@H](O)[C@@H](O)[C@H]2Cc2ccc3c(c2)CCO3)c1	30.6	0.11			
